Like-named read-outs stand apart in the source and are kept apart here.
Tested on: monocistronic NK5.1 HCV replicon in Huh7 cells
Assay: HCV replicon assay, monocistronic replicon cell line
Format: cell-based, hepatitis C virus
Details: Hepatitis C virus, read-out: Mono EC50 Median
Procedure, shortened: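 EC50 derives from the HCV RNA/GAPDH RNA ratio by one-step TaqMan RT-PCR, relative to DMSO-only wells. Compounds (six half-log concentrations, 0.6% DMSO) were incubated 3 days at 37 °C with NK5.1 monocistronic replicon Huh7 cells plated a day earlier.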

[1] = Huh-7, monocistronic NK5.1 HCV replicon in Huh7 cells, median value
[2] = Huh-7, 72 h, Table 1, monocistronic replicon in Huh7 cells, 3 days incubation, HCV RNA/GAPDH RNA by TaqMan RT-PCR
[3] = Huh-7, 72 h, table T3 (compounds 471-640), monocistronic replicon in Huh7 cells, 3 days incubation, HCV RNA/GAPDH RNA by TaqMan RT-PCR

Row | Structure (SMILES) | EC50 [1] | EC50 [2] | also measured
1 | Oc1ccc(Br)cc1-c1nc(-c2ccccn2)n[nH]1 [Compound 358, 4-Bromo-2-(5-pyridin-2-yl-2H-[1,2,4]triazol-3-yl)-phenol] | 4.3 µM | – | –
2 | COc1ccccc1-c1ccnn1-c1ccccc1[N+](=O)[O-] [Compound 32, 5-(2-Methoxy-phenyl)-1-(2-nitro-phenyl)-1H-pyrazole] | – | 3.6 µM | –
3 | Cc1cccnc1-c1noc(-c2ccc([N+](=O)[O-])cc2Cl)n1 [Compound 182, 2-[5-(2-Chloro-4-nitro-phenyl)-[1,2,4]oxadiazol-3-yl]-3-methyl-pyridine] | – | 12 µM | –
4 | Cc1ccccc1-c1nnc(-c2ccccn2)o1 [Compound 339, 2-(5-o-Tolyl-[1,3,4]oxadiazol-2-yl)-pyridine] | > 32 µM | – | –
5 | Cc1ccccc1-c1nnc(-c2ccco2)o1 [Compound 303, 2-Furan-2-yl-5-o-tolyl-[1,3,4]oxadiazole] | > 32 µM | – | –
6 | COc1ccc(O)c(-c2nc(-c3ncccn3)n[nH]2)c1 [Compound 562, 4-Methoxy-2-(5-pyrimidin-2-yl-2H-[1,2,4]triazol-3-yl)-phenol] | – | – | EC50 [3]: > 32 µM
7 | COc1ccc(-c2nc(-c3ccccn3)n[nH]2)c(O)c1 [Compound 363, 5-Methoxy-2-(5-pyridin-2-yl-2H-[1,2,4]triazol-3-yl)-phenol] | > 19 µM | – | –
8 | Brc1ccc(-c2nc(-c3nccc4ccccc34)n[nH]2)cc1 [Compound 439] | > 19 µM | – | –
9 | CCCNC(=O)c1cc(-c2ccc(OC)cc2)nn1-c1ncccc1C(F)(F)F [Compound 59, 5-(4-Methoxy-phenyl)-2-(3-trifluoromethyl-pyridin-2-yl)-2H-pyrazole-3-carboxylic acid propylamide] | – | > 32 µM | –
10 | COc1ccc(-c2cc(C(=O)O)nn2-c2ncccc2C(F)(F)F)cc1 [Compound 58] | – | > 32 µM | –
11 | Cc1cccnc1-c1noc(-c2cc(Cl)cc(Br)c2O)n1 [Compound 279, 2-Bromo-4-chloro-6-[3-(3-methyl-pyridin-2-yl)-[1,2,4]oxadiazol-5-yl]-phenol] | 3.3 µM | – | –
12 | Fc1ccccc1-c1nc(-c2cnccc2C(F)(F)F)n[nH]1 [Compound 475, 3-[5-(2-Fluoro-phenyl)-1H-[1,2,4]triazol-3-yl]-4-trifluoromethyl-pyridine] | – | – | EC50 [3]: > 32 µM
13 | Brc1ccccc1-c1nc(-c2ccccn2)n[nH]1 [Compound 431, 2-[5-(2-Bromo-phenyl)-1H-[1,2,4]triazol-3-yl]-pyridine] | > 19 µM | – | –
14 | COc1ccccc1-c1nnc(-c2ncc(C(F)(F)F)cc2Cl)o1 [Compound 346, 3-Chloro-2-[5-(2-methoxy-phenyl)-[1,3,4]oxadiazol-2-yl]-5-trifluoromethyl-pyridine] | > 32 µM | – | –
15 | COc1cccc(-c2nc(-c3cnccc3C(F)(F)F)n[nH]2)c1 [Compound 427, 3-[5-(3-Methoxy-phenyl)-1H-[1,2,4]triazol-3-yl]-4-trifluoromethyl-pyridine] | > 19 µM | – | –
16 | FC(F)(F)c1ccncc1-c1n[nH]c(-c2ccccc2Cl)n1 [Compound 476, 3-[5-(2-Chloro-phenyl)-1H-[1,2,4]triazol-3-yl]-4-trifluoromethyl-pyridine] | – | – | EC50 [3]: > 32 µM
17 | Oc1ccc2ccccc2c1-c1nc(-c2ncccc2Br)n[nH]1 [Compound 503, 1-(5-(3-Bromo-pyridin-2-yl)-2H-[1,2,4]triazol-3-yl)-naphthalen-2-ol] | – | – | EC50 [3]: 6.9 µM
18 | Oc1ccc2ccccc2c1-c1nc(-c2ncccc2-c2ccccc2)no1 [Compound 229, 1-[3-(3-Phenyl-pyridin-2-yl)-[1,2,4]oxadiazol-5-yl]-naphthalen-2-ol] | > 10 µM | > 10 µM | –
19 | Cc1cccnc1-c1n[nH]c(-c2ccc(-c3ccccc3)c(F)c2)n1 [Compound 448, 2-[5-(2-Fluoro-biphenyl-4-yl)-1H-[1,2,4]triazol-3-yl]-3-methyl-pyridine] | 28 µM | – | –
20 | CC(C)(C)c1ccc(O)c(-c2nc(-c3ccc(C(F)(F)F)cn3)n[nH]2)c1 [Compound 507, 4-tert-Butyl-2-[5-(5-trifluoromethyl-pyridin-2-yl)-2H-[1,2,4]triazol-3-yl]-phenol] | – | – | EC50 [3]: > 19 µM
21 | Cc1ccc(O)c(-c2nc(-c3ncccc3Br)n[nH]2)c1 [Compound 493, 2-[5-(3-Bromo-pyridin-2-yl)-2H-[1,2,4]triazol-3-yl]-4-Methyl-phenol] | – | – | EC50 [3]: 16 µM
22 | CCOC(=O)c1cc(-c2ccc3ccccc3c2)nn1-c1ncccc1C(F)(F)F [Compound 68] | – | 12 µM | –
23 | CCOC(=O)c1cc(-c2ccc3ccccc3c2)n(-c2ncccc2[N+](=O)[O-])n1 [Compound 69] | – | 24 µM | –
24 | CCN(CC)c1ccc(-c2nc(-c3ncccc3Br)n[nH]2)c(O)c1 [Compound 498, 2-[5-(3-Bromo-pyridin-2-yl)-2H-[1,2,4]triazol-3-yl]-5-Diethylamino-phenol] | – | – | EC50 [3]: 5.8 µM

Row | Structure (SMILES) | EC50 [1] | EC50 [2] | also measured
25 | Oc1ccccc1-c1cc(-c2ccccn2)on1 [Compound 123, 2-(5-Pyridin-2-yl-isoxazol-3-yl)-phenol] | – | > 32 µM | –
26 | Cn1nc(-c2ccccn2)nc1-c1cc(Br)ccc1O [Compound 596, 4-Bromo-2-(2-methyl-5-pyridin-2-yl-2H-[1,2,4]triazol-3-yl)-phenol] | – | – | EC50 [3]: 15 µM
27 | Fc1cccc(Cl)c1-c1nc(-c2ccccn2)n[nH]1 [Compound 436, 2-[5-(2-Fluoro-6-chloro-phenyl)-1H-[1,2,4]triazol-3-yl]-pyridine] | 16 µM | – | –
28 | CCOC(=O)c1cc(-c2ccc3ccccc3c2)nn1-c1ccccn1 [Compound 65, 5-Naphthalen-2-yl-2-pyridin-2-yl-2H-pyrazole-3-carboxylic acid ethyl ester] | – | > 32 µM | –
29 | Fc1ccccc1-c1nnc(-c2ccccc2C(F)(F)F)o1 [Compound 334, 2-(2-Fluoro-phenyl)-5-(2-trifluoromethyl-phenyl)-[1,3,4]oxadiazole] | > 32 µM | – | –
30 | Nc1cccnc1-c1n[nH]c(-c2cc(Br)ccc2O)n1 [Compound 555, 2-[5-(3-amino-pyridin-2-yl)-2H-[1,2,4]triazol-3-yl]-4-bromo-phenol] | – | – | EC50 [3]: > 3.2 µM
31 | COc1ccc(O)c(-c2nc(-c3ncccc3C)no2)c1 [Compound 185, 4-Methoxy-2-[3-(3-methyl-pyridin-2-yl)-[1,2,4]oxadiazol-5-yl]-phenol] | – | 1.6 µM | –
32 | COc1ccc(-c2ccn(-c3ncccc3C)n2)c(O)c1 [Compound 91, 5-Methoxy-2-[1-(3-methyl-pyridin-2-yl)-1H-pyrazol-3-yl]-phenol] | – | 9.1 µM | –
33 | Oc1ccc(F)cc1-c1nc(-c2ccccn2)n[nH]1 [Compound 353, 4-Fluoro-2-(5-pyridin-2-yl-2H-[1,2,4]triazol-3-yl)-phenol] | 7.1 µM | – | –
34 | Oc1cc(OCc2ccccc2)ccc1-c1nc(-c2ncccc2Br)n[nH]1 [Compound 490, 2-[5-(3-Bromo-pyridin-2-yl)-2H-[1,2,4]triazol-3-yl]-5-Benzyloxy-phenol] | – | – | EC50 [3]: 7 µM
35 | Cc1ccc(O)c(-c2nc(-c3ncccc3-c3ccccc3)no2)c1 [Compound 232, 4-Methyl-2-[3-(3-phenyl-pyridin-2-yl)-[1,2,4]oxadiazol-5-yl]-phenol] | > 32 µM | > 32 µM | –
36 | COc1ccc(OC)c(-c2nc(-c3nccc4ccccc34)no2)c1 [Compound 193, 1-[5-(2,5-Dimethoxy-phenyl)-[1,2,4]oxadiazol-3-yl]-isoquinoline] | – | 1.3 µM | –
37 | COc1ccccc1-c1ccn(-c2ccccc2[N+](=O)[O-])n1 [Compound 31, 3-(2-Methoxy-phenyl)-1-(2-nitro-phenyl)-1H-pyrazole] | – | 21 µM | –
38 | Oc1ccc(F)cc1-c1nc(-c2nccc3ccccc23)no1 [Compound 199, 4-Fluoro-2-(3-isoquinolin-1-yl-[1,2,4]oxadiazol-5-yl)-phenol] | – | 1.1 µM | –
39 | Cc1cccnc1-c1n[nH]c(-c2ccc(C(C)C)cc2)n1 [Compound 460, 2-[5-(4-Isopropyl-phenyl)-1H-[1,2,4]triazol-3-yl]-3-methyl-pyridine] | 3 µM | – | –
40 | Cc1cccnc1-c1noc(-c2cc(O)ccc2O)n1 [Compound 179, 2-[3-(3-Methyl-pyridin-2-yl)-[1,2,4]oxadiazol-5-yl]-benzene-1,4-diol] | – | 1.3 µM | –
41 | Cc1cccnc1-c1noc(-c2cc([N+](=O)[O-])ccc2Cl)n1 [Compound 191, 2-[5-(2-Chloro-5-nitro-phenyl)-[1,2,4]oxadiazol-3-yl]-3-methyl-pyridine] | – | 2 µM | –
42 | COc1ccc(-c2nc(-c3ncccc3C)no2)c(O)c1OC [Compound 282, 2,3-Dimethoxy-6-[3-(3-methyl-pyridin-2-yl)-[1,2,4]oxadiazol-5-yl]-phenol] | 1.3 µM | – | –
43 | CCOC(=O)c1cc(-c2ccc(OC)cc2)n(-c2ncccc2C(F)(F)F)n1 [Compound 57, 5-(4-Methoxy-phenyl)-1-(3-trifluoromethyl-pyridin-2-yl)-1H-pyrazole-3-carboxylic acid ethyl ester] | – | > 32 µM | –
44 | Oc1ccccc1-c1nnc(-c2c(Cl)cccc2Cl)o1 [Compound 322, 2-[5-(2,6-Dichloro-phenyl)-[1,3,4]oxadiazol-2-yl]-phenol] | 12 µM | – | –
45 | O=[N+]([O-])c1cccnc1-c1n[nH]c(-c2cc(Br)ccc2O)n1 [Compound 556, 4-Bromo-2-[5-(3-nitro-pyridin-2-yl)-2H-[1,2,4]triazol-3-yl]-phenol] | – | – | EC50 [3]: > 3.2 µM
46 | Oc1ccc(Cl)cc1-c1nc(-c2ccccn2)n[nH]1 [Compound 354, 4-Chloro-2-(5-pyridin-2-yl-2H-[1,2,4]triazol-3-yl)-phenol] | 4.8 µM | – | –
47 | COc1ccccc1-c1ccnn1-c1ncccc1[N+](=O)[O-] [Compound 37, 2-[5-(2-Methoxy-phenyl)-pyrazol-1-yl]-3-nitro-pyridine] | – | > 32 µM | –
48 | Oc1ccc2ccccc2c1-c1nc(-c2ncccc2Br)no1 [Compound 256, 1-[3-(3-Bromo-pyridin-2-yl)-[1,2,4]oxadiazol-5-yl]-naphthalen-2-ol] | 2.1 µM | – | –
